Experiments:
Type in all cases: functional
Homo sapiens [1] = organism: Homo sapiens; assay: Concentration yielding an amount of cellular protein at the end of the incubation that is the same as at the beginning of the incubation in brain tumor sub panel
Homo sapiens [2] = organism: Homo sapiens; assay: Concentration yielding an amount of cellular protein at the end of the incubation that is the same as at the beginning of the incubation in full panel
Homo sapiens [3] = organism: Homo sapiens; assay: TGI correlation coefficient value of the compound
[4] = Selective rating against brain tumor cell line panel; i selective (**) if (A/B)> 6 and TGI-Corr > 0.8
[5] = Selectivity rating against brain tumor cell line panel; i moderatelyselective (*) if 3< (A/B)< 6 and TGI-Corr > 0.8
[6] = Selectivity rating for brain tumor cell line panel; i selective (**) if (A/B)> 6 and TGI-Corr > 0.8

| SMILES | TGI concentration (Homo sapiens [1]) [µM] | TGI concentration (Homo sapiens [2]) [µM] | TGI correlation coefficient (Homo sapiens [3]) | Selectivity rating [4] | Selectivity rating [5] | Selectivity rating [6] |
| --- | --- | --- | --- | --- | --- | --- |
| CC(=O)[O-].COc1ccc2[nH]c3c(C)c4cc[n+](C)cc4c(C)c3c2c1 | 2.1 | 18 | 0.94 | – | – | – |
| COc1ccc2[nH]c3c(C)c4cc[n+](C)cc4c(C)c3c2c1 | – | – | – | Selective | – | – |
| Cc1nccc2c(C)c3[nH]c4ccccc4c3cc12 | 3.7 | 3.6 | <0.5 | – | – | – |
| Cc1c2ccncc2c(C)c2c1[nH]c1ccc(O)cc12 | 3.4 | 2.8 | <0.5 | – | – | – |
| CS(=O)(=O)[O-].Cc1c2cc[n+](C)cc2c(C)c2c1[nH]c1ccccc12 | 1 | 11 | 0.86 | – | – | – |
| Cc1c2ccncc2c(C)c2c1[nH]c1ccccc12 [ELLIPTECINE] | 2.9 | 3 | <0.5 | – | – | – |
| COc1ccc2[nH]c3c(C)c4cc[n+](C)cc4c(C)c3c2c1.[I-] | 1.1 | 11 | 1 | – | – | – |
| CCN(CC)CC[n+]1ccc2c(C)c3[nH]c4ccccc4c3c(C)c2c1.[Br-] | 2.7 | 4.2 | 0.66 | – | – | – |
| CCN(CC)CC[n+]1ccc2c(C)c3[nH]c4ccc(O)cc4c3c(C)c2c1.[Cl-] [DATELLIPTIUM CHLORIDE] | 16 | 34 | 0.78 | – | – | – |
| Cc1c2cc[n+](CCN3CCCCC3)cc2c(C)c2c1[nH]c1ccc(O)cc12 | 20 | 34 | 0.71 | – | – | – |
| Cc1c2cc[n+](Cc3ccc(I)cc3)cc2c(C)c2c1[nH]c1ccccc12.[Cl-] | 54 | 44 | <0.5 | – | – | – |
| CC(=O)[O-].Cc1c2cc[n+](C)cc2c(C)c2c1[nH]c1ccc(Cl)cc12 | 4.7 | 22 | 0.85 | – | Moderately selective | – |
| CC(=O)[O-].Cc1c2cc[n+](C)c(C)c2cc2c1[nH]c1ccccc12 | 8.9 | 32 | 0.8 | – | – | Moderately selective |
| Cc1ccc2[nH]c3c(C)c4ccncc4c(C)c3c2c1 | 3.1 | 2.7 | <0.5 | – | – | – |
| CC(=O)[O-].Cc1c2cc[n+](C)cc2c(C)c2c1oc1ccccc12 | 5.5 | 20 | 0.89 | – | Moderately selective | – |
| Cc1c2cc[n+](C)cc2c(C)c2c1[nH]c1ccccc12.[I-] | 1.4 | 12 | 0.96 | – | – | – |
| Cc1c2ccncc2c(C)c2c1[nH]c1ccc(Cl)cc12 | 16 | 17 | <0.5 | – | – | – |
| Cc1c2cc[n+]([O-])cc2c(C)c2c1[nH]c1ccccc12 | 41 | 62 | <0.5 | – | – | – |
| Cc1c2cc[n+](C)cc2c(C)c2c1[nH]c1ccccc12 | – | – | – | Selective | – | – |
| CC(=O)[O-].Cc1c2cc[n+](C)cc2c(C)c2c1[nH]c1ccc(O)cc12 [ELLIPTINIUM ACETATE] | 58 | 78 | <0.5 | – | – | – |
| COc1ccc2[nH]c3c(C)c4ccncc4c(C)c3c2c1 | 3.6 | 3.2 | <0.5 | – | – | – |
| C=CCCCCn1c2ccccc2c2c(C)c3c[n+](C)ccc3c(C)c21.CC(=O)[O-] | 1.8 | 2.9 | 0.6 | – | – | – |
| CC(=O)[O-].Cc1ccc2[nH]c3c(C)c4cc[n+](C)cc4c(C)c3c2c1 | 6.9 | 21 | 0.83 | – | Moderately selective | – |

Source: ChEMBL document CHEMBL1127573, “Anticancer specificity of some ellipticinium salts against human brain tumors in vitro” (1994)
